One block for each compound: values may come before it. Calls of active or inactive are those of the source.
Legend:
[1] = target: Paired box protein Pax-8 (Homo sapiens, UniProt Q06710); experiment: PAX8 transcriptional activity inhibition in RMG-I – RMG-I cells, luciferase, cherry-pick, dose response (AID 687027); assay type: functional, cell-based;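 also: luciferase reporter driven by Pax8 target thyroperoxidase promoter measured by SteadyGlo luminescence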
[2] = OVCAR8 cell viability loss – plate reader, dry powder samples, PAX8 project, dose response (AID 743197); assay type: functional, cell-based; conditions: OVCAR-8
[3] = A2780 cell killing – plate reader, dry powder samples, cytotoxicity control, dose response (AID 743046); assay type: functional, cell-based
[4] = OVCAR-3 cell viability loss – plate reader, dry powder samples, PAX8 inhibitor project, dose response (AID 743044); assay type: functional, cell-based
[5] = viability loss in A549 lung cells – cell-based, 24 h, CellTiter-Glo luminescence, cherry-picks, cytotoxicity control, dose response (AID 1053115); assay type: functional; conditions: A549, 24 h
[6] = target: C-C chemokine receptor type 6 (Homo sapiens, UniProt P51684); experiment: SAR analysis of small molecule antagonists of the CXCR6 receptor using a CCR6 receptor luminescent beta-arrestin counterscreen.; assay type: functional
Sequence of C-C chemokine receptor type 6 (P51684 whole entry): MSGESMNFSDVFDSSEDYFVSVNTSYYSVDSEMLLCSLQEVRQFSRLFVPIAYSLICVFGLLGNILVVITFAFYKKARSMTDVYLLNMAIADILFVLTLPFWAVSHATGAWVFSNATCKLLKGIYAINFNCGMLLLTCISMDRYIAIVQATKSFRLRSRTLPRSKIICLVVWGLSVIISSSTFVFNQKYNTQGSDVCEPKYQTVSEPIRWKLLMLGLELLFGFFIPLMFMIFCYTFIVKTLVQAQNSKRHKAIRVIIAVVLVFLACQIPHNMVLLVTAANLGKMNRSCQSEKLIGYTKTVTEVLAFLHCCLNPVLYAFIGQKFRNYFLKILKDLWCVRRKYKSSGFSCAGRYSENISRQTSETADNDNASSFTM

[7] = target: C-X-C chemokine receptor type 4 (Homo sapiens, UniProt P61073); experiment: SAR analysis of small molecule antagonists of the CXCR6 receptor using a CXCR4 receptor luminescent beta-arrestin counterscreen.; assay type: functional
Sequence of C-X-C chemokine receptor type 4 (P61073 whole entry): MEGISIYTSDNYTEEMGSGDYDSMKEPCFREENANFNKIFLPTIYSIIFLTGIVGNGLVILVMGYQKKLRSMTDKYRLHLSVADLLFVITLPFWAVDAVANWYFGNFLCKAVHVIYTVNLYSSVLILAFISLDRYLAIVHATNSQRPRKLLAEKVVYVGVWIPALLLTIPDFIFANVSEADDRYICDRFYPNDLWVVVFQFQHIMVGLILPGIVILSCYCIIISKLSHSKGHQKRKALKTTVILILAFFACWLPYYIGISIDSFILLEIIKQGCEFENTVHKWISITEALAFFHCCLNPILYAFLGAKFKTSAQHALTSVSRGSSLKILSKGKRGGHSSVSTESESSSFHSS

[8] = YAP1 overexpression rescue of CTGF inhibition – DLD1 cells, RT-qPCR, cherry-pick, mechanism study for YAP1 pathway inhibitor project, dose response (AID 1053127); assay type: functional, cell-based; conditions: DLD-1
[9] = viability loss in MITF-independent A375 cells – cell-based, CellTiter-Glo luminescence, dry powder, set 2, counter-screen for MITF inhibitor project, dose response (AID 624489); assay type: functional; conditions: A-375;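 also: actives are compounds lowering A375 viability meaning general cytotoxicity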
[10] = cytotoxicity in MITF-independent A375 cells – cell-based, CellTiter-Glo luminescence, dry powder, set 4, counter-screen for MITF inhibitor project, dose response (AID 624364); assay type: functional; conditions: A-375;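 also: A375 melanoma cells are MITF independent so this is a counter screen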
[11] = target: Kallikrein-7 (Homo sapiens, UniProt P49862); experiment: Fluorescence Intensity-based biochemical primary high throughput dose response assay to identify activators of kallikrein-7 (K7) zymogen.
Sequence of Kallikrein-7 (P49862 whole entry): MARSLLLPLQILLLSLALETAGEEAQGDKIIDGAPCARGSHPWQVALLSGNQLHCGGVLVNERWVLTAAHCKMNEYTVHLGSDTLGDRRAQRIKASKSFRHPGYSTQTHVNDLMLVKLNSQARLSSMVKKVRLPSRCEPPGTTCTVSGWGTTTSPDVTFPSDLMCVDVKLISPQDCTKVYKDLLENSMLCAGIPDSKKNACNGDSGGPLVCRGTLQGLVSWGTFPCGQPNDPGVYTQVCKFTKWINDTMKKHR

[12] = toxicity to human HepG2 hepatoma cells – cell-based, plate reader, dry powder samples, cytotoxicity control, dose response (AID 1159569); assay type: functional;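 also: inhibitor potency with signal falling toward the positive control level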
[13] = Dd2 malaria parasite growth inhibition potency – SYBR Green, dry powder samples, dose response (AID 1159566); assay type: functional, cell-based;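 also: potency for growth inhibition with lower SYBR green DNA signal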
[14] = P. falciparum Dd2 growth inhibitors, dose response, SYBR Green, cherry-picked samples (AID 1159567); assay type: functional, cell-based
[15] = growth inhibition of yeast DHODH-expressing 3D7 parasites – SYBR Green, dry powder samples, dose response (AID 1159570); assay type: functional, cell-based;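 also: parasite growth measured after 72 hours of compound exposure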
[16] = growth inhibition of PfATP4-mutant resistant parasites – NITD609-resistant line, SYBR Green, dry powder, dose response (AID 1159571); assay type: functional, cell-based;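 also: parasites synchronized at ring stage by sorbitol before testing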
[17] = BioA aminotransferase inhibition, coupled fluorescent readout – biochemical, coupled fluorescence displacement, 20-point, dry powder, dose response (AID 743357); assay type: functional
[18] = target: 1-phosphatidylinositol 4,5-bisphosphate phosphodiesterase beta-3 (Homo sapiens, UniProt Q01970); experiment: Fluorescence-based biochemical high throughput dose response assay to identify inhibitors of phospholipase C isozymes (PLC-B3).
Sequence of 1-phosphatidylinositol 4,5-bisphosphate phosphodiesterase beta-3 (Q01970 whole entry): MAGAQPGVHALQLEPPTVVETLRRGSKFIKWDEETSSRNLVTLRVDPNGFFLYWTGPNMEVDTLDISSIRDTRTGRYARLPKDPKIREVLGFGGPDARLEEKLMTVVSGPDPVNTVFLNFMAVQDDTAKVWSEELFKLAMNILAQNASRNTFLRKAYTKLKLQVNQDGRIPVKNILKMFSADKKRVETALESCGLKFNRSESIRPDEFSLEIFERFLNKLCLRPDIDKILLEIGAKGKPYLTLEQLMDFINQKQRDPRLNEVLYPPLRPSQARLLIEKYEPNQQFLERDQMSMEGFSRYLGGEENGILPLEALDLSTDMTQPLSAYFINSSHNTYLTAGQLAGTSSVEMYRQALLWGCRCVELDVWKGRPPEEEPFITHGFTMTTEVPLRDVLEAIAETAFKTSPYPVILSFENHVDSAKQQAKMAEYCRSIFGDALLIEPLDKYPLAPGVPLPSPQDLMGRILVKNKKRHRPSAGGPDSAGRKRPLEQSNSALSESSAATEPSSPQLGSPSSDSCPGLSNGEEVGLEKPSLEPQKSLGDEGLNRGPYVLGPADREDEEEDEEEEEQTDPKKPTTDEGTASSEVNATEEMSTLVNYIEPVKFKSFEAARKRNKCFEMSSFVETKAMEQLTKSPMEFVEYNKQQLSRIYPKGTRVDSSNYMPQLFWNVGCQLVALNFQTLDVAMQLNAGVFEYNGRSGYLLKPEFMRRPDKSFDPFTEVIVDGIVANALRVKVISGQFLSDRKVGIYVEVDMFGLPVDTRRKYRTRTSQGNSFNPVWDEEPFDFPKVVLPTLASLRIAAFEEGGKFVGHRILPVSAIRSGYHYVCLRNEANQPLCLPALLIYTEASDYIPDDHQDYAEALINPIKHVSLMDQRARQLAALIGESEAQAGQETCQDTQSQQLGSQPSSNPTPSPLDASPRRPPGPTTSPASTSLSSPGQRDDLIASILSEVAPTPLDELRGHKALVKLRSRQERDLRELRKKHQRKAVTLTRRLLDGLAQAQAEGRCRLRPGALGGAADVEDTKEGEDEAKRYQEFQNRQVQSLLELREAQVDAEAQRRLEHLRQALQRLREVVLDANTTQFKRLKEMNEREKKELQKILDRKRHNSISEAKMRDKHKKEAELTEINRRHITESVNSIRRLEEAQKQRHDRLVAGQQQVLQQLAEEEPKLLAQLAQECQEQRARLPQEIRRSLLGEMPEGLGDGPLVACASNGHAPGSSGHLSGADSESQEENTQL

[19] = target: 1-phosphatidylinositol 4,5-bisphosphate phosphodiesterase gamma-1 (Homo sapiens, UniProt P19174); experiment: Counterscreen for inhibitors of phospholipase C isozymes (PLC-B3): Fluorescence-based biochemical high throughput dose response assay to identify inhibitors of phospholipase C isozymes (PLC-gamma1).
Sequence of 1-phosphatidylinositol 4,5-bisphosphate phosphodiesterase gamma-1 (P19174 whole entry): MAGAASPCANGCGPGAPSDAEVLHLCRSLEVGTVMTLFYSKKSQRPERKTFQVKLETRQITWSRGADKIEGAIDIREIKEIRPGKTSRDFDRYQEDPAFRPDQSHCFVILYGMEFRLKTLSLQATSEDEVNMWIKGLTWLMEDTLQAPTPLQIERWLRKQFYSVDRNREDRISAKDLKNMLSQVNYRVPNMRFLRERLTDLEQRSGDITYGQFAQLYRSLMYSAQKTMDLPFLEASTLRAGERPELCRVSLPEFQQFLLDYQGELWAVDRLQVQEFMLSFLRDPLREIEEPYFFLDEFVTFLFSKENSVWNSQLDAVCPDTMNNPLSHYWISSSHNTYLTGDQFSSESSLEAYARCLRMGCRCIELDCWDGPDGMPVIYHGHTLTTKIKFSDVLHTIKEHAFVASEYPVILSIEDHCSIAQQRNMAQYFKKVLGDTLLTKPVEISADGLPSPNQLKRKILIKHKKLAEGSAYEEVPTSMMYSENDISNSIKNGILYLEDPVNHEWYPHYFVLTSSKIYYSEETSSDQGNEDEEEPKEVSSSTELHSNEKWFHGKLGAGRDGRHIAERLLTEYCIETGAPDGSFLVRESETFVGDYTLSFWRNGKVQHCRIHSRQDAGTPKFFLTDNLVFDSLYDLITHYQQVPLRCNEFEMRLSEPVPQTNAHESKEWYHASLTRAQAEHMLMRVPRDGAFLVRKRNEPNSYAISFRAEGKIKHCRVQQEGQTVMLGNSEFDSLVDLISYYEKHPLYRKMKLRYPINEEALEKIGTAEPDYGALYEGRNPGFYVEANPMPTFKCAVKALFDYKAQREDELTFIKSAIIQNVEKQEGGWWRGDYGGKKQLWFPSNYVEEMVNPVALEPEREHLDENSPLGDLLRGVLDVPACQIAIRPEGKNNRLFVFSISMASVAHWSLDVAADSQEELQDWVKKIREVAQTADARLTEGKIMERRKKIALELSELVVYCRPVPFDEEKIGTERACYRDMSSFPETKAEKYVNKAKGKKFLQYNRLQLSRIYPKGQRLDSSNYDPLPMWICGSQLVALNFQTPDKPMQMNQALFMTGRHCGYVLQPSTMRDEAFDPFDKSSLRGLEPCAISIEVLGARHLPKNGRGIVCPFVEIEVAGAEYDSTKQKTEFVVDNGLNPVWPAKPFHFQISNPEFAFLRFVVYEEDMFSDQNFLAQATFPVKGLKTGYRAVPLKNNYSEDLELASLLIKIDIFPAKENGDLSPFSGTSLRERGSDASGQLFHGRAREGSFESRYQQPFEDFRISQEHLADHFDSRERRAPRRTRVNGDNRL

[20] = cytotoxicity toward HT-29 cells – cell-based, CellTiter-Glo luminescence, IC50, dose response (AID 1117330); assay type: functional
[21] = RKO cell viability reduction, dose response, CellTiter-Glo luminescence (AID 1117322); assay type: functional
[22] = cytotoxicity toward Colo320 cells – cell-based, CellTiter-Glo luminescence, IC50, dose response (AID 1117334); assay type: functional; conditions: COLO 320
[23] = SNU-C1 cell viability reduction, dose response, CellTiter-Glo luminescence (AID 1117323); assay type: functional, cell-based
[24] = cytotoxicity toward HCT116 cells – cell-based, CellTiter-Glo luminescence, IC50, dose response (AID 1117332); assay type: functional; conditions: HCT-116
[25] = rise of 2N DNA cells, HeLa – IC50, dose response (AID 1117349); assay type: functional, cell-based
[26] = Potency on glucagon-like peptide 1 release, dose-response in NCI-H716 cell line, half maximal inhibitory concentration (AID 1117344); assay type: functional, cell-based
[27] = rise of 4N DNA cells, HeLa – IC50, dose response (AID 1117351); assay type: functional, cell-based
[28] = HCT116 cell viability decrease, GSK3B pretreatment – CellTiter-Glo, IC50, dose response (AID 1117339); assay type: functional; conditions: HCT-116
[29] = Reduced DLD-1 viability, concentration-response, CellTiter-Glo luminescence (AID 1117352); assay type: functional
[30] = glucagon-like peptide-1 release potency in STC-1, concentration-response, half-maximal inhibitory concentration in the STC-1 line (AID 1117345); assay type: functional, cell-based
[31] = CellTiter-Glo luminescence survival assay, SW480 colon tumor line, concentration-response curve, half-maximal inhibitory concentration (AID 1117338); assay type: functional
[32] = IC50 of insulin release inhibition, rat insulinoma INS-1E line, 5 mM glucose, cell-based (AID 1117331); assay type: functional
[33] = viability loss of HPDE-C7K cells – cell-based, fluorescence, HTS, primary screen (AID 431); assay type: functional; conditions: Homo sapiens
[34] = HPDE-C7 pancreatic duct cell viability loss – fluorescence, HTS (AID 430); assay type: functional, cell-based; conditions: Homo sapiens

Sequence of Paired box protein Pax-8 (Q06710 whole entry): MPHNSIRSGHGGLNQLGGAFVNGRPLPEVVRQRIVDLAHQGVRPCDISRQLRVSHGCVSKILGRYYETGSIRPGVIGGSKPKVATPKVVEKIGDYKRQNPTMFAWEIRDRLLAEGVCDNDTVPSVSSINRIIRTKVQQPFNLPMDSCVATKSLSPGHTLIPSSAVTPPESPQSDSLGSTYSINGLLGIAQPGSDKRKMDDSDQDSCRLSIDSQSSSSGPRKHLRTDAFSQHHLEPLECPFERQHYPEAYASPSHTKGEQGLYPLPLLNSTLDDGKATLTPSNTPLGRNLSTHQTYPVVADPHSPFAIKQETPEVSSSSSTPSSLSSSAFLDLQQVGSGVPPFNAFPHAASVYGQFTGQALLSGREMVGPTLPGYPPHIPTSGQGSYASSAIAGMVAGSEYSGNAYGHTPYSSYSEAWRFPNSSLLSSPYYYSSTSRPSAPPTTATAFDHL

Structure (SMILES): O=C(C1CCC1)N1CC(=O)N2[C@H](C1)[C@H](c1ccc(C#Cc3cccc(F)c3)cc1)[C@@H]2CO
- AC50 [1]: 10.6 µM (active)
- AC50 [2]: > 70 µM (inactive)
- AC50 [3]: 18 µM (active)
- AC50 [4]: 9.85 µM (active)

Structure (SMILES): N#Cc1ccc(-c2ccc3c(c2)[C@@H]2[C@@H](CCN2C(=O)C2CCCCC2)[C@H](CO)N3)cc1
- AC50 [5]: 46.8 µM (active)

Structure (SMILES): COc1ccc(NC(=O)CN2C3CCCC2CC(NC(=O)c2cc(OC)c(OC)c(OC)c2)C3)cc1 (centres undefined)
- IC50 [6]: > 79 µM (inactive)
- IC50 [7]: > 79 µM (inactive)

Structure (SMILES): Cc1ccccc1-c1ccc([C@H]2[C@@H](CO)N3CCCCN(S(=O)(=O)Cc4ccccc4)C[C@@H]23)cc1
- AC50 [8]: > 26 µM (inactive)

Structure (SMILES): C=CCNC1=C(N2CCN(CC)CC2)C(=O)c2ccccc2C1=O
- AC50 [9]: 13.8 µM (active)
- AC50 [10]: 29.3 µM (active)

- EC50 [11]: > 69.6 µM (inactive)
Structure (SMILES): COc1ccc(OC)c(/C=N\NC(=O)c2c(C)nc3cc(C)ccn23)c1

Structure (SMILES): COc1cccc(C#Cc2cnc3c(c2)C(=O)N([C@H](C)CO)C[C@H](C)[C@@H](CN(C)C(=O)C2CCCCC2)O3)c1
- AC50 [12]: 29.4 µM (active)
- AC50 [13]: 0.643 µM (active)
- AC50 [14]: 0.722 µM (active)
- AC50 [15]: 1.58 µM (active)
- AC50 [16]: 0.803 µM (active)

Structure (SMILES): COc1ccc(C(=O)N2CCN(c3ccc(C(C)=O)cc3)CC2)cc1OC
- AC50 [17]: 11.7 µM (active)

- IC50 [18]: > 123 µM (inactive)
- IC50 [19]: > 123 µM (inactive)
Structure (SMILES): O=C(O)CCCN1C(=O)/C(=C\c2ccco2)SC1=S

Structure (SMILES): COC(=O)Nc1nc2cc(Sc3ccccc3)ccc2[nH]1 [FENBENDAZOLE]
- IC50 [20]: > 20 µM (inactive)
- IC50 [21]: 0.001 µM (active)
- IC50 [22]: > 20 µM (inactive)
- IC50 [23]: > 20 µM (inactive)
- IC50 [24]: 0.001 µM (active)
- IC50 [25]: 0.204 µM (active)
- IC50 [26]: > 40 µM (inactive)
- IC50 [27]: 0.195 µM (active)
- IC50 [28]: 0.003 µM (active)
- IC50 [29]: 0.0673 µM (active)
- IC50 [30]: > 20 µM (inactive)
- IC50 [31]: > 20 µM (inactive)

Structure (SMILES): CN1C[C@H](CNC(=O)OCc2ccccc2)C[C@@H]2c3cccc4c3c(cn4C)C[C@H]21 [METERGOLINE]
- IC50 [32]: > 33.3 µM (inactive)
- EC50 [33]: > 20 µM (not active)
- EC50 [34]: > 20 µM (not active)
